Source: patent publication US8871751B2, “Compositions and methods relating to nuclear hormone and steroid hormone receptors including inhibitors of estrogen receptor alpha-mediated gene expression and inhibition of breast cancer” (The Board of Trustees of the University of Illinois, priority 2008, dated 2014)
Values joined by “and” are separate entries in the source; they are usually repeats but may differ in a detail not shown here. Equal values may be shown once. Read-outs that look alike come from different tables or passages of the source.

Key:
[1] = biological target: T1, human PR-B binding to flPRE (Homo sapiens, UniProt P06401); assay: FAMA: inhibition of PR binding to flcPRE; settings: binding to HRE, 5 concentrations 0.5-10 μM, sequential method
T1 construct: FLAG; made in house
T1 sequence (P06401 1-933): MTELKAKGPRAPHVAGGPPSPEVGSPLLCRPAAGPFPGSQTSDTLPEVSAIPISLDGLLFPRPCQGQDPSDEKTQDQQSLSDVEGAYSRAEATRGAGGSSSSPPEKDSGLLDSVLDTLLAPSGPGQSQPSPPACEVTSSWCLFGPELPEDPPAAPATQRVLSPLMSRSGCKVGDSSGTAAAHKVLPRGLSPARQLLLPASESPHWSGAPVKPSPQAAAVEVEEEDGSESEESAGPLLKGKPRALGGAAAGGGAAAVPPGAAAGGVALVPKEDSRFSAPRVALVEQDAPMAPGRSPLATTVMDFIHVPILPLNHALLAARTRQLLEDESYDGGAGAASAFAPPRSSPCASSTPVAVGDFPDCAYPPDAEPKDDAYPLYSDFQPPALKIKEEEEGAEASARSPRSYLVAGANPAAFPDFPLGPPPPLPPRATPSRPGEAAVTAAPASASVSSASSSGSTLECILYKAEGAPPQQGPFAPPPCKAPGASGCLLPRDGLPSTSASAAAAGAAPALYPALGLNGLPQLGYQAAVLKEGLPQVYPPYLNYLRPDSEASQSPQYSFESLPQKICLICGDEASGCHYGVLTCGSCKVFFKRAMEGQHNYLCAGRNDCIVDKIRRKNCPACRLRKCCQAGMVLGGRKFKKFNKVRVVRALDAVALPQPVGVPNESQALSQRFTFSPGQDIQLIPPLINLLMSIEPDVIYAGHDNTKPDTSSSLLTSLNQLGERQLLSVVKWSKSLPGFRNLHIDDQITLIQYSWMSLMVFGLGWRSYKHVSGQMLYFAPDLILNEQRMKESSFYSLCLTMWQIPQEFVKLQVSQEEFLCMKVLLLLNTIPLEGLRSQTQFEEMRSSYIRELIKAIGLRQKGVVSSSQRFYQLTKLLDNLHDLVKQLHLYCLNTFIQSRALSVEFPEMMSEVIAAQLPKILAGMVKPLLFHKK
Experimental: (§1) Dose response curves for selected compounds were carried out as described for the HTS screen except that each well contained the indicated concentration of test compound. PR assays were carried out in the same buffer used for ERα assays and contained 1 nM flcPRE and 11 nM PR-B and 100 nM progesterone. The buffer used for AR was similar but also contained 5 μM ZnCl, 5 mM NaF, 0.6 μM CHAPS and 100 nM dihydrotestosterone. AR assays contained 1 nM flcARE and 50 nM full-length wild-type AR.
Specificity was evaluated in dose-response studies by quantitative FAMA using purified full-length human PR binding to a fluorescein-labeled progesterone/glucocorticoid response element (flPRE) and full-length human androgen receptor (AR) binding to a fluorescein-labeled androgen response element (flARE).

[2] = biological target: T2, human ERα binding to flcERE (Homo sapiens, UniProt P03372); assay: FAMA: inhibition of ERα binding to flcERE; settings: for inhibition of binding of ERα to the flcERE: 5 μM TPBM; for IC50: FAMA
T2 construct: Full-length FLAG-tagged human ERα was expressed and purified as described previously (27); FLAG; made in house
T2 sequence (P03372 1-595): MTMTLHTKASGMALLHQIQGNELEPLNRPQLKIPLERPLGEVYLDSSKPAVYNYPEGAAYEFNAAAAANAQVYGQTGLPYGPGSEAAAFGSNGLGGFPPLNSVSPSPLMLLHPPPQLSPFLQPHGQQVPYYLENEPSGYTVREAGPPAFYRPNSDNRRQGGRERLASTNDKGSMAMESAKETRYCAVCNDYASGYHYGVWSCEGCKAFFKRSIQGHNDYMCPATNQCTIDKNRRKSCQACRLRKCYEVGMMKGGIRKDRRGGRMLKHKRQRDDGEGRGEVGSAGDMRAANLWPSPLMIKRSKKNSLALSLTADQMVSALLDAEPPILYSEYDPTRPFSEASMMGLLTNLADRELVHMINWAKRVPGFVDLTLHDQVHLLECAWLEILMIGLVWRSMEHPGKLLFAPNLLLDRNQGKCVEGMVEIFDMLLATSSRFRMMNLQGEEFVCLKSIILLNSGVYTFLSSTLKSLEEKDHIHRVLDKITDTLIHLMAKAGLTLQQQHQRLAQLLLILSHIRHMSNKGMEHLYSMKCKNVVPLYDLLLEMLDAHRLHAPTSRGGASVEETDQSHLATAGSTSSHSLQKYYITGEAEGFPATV
Experimental: Prior to screening, the 10 mM library stocks were diluted to produce replica libraries in 384-well plates containing each small molecule at 0.25 mM (in DMSO). In our initial studies we were concerned that forming the flcERE-ERα complex first and then adding the candidate small molecule inhibitors would miss small molecules that bind at the interface. We therefore screened using the “sequential” method in which the candidate small molecules were first incubated with ERα and followed by addition of the flcERE. The assay for binding of ERα to the flcERE is a modification of our earlier assay (27). Assays were carried out at room temperature in black wall 384-well microplates (Greiner/Bio-One) in a total volume of 10 μl in buffer containing 20 mM Tris pH 7.5, 10% glycerol, 0.2 mM EDTA, 2 mM DTT, 100 mM KCl, 0.5 ng/μl poly dl:dC, […] bovine serum albumin and 100 nM 17β-estradiol (E2). For high throughput screening, a master mix without ERα and probe was prepared at 4° C. The master mix was divided into 2 parts. ERα was added to one part to 5 nM in the final assays. 7 μl of the ERα-containing mix was then dispensed into each well of a 384-well plate on ice. 100 nl of the compounds being tested was then added using a pin-transporter (V & P Scientific, Inc, CA) to a final concentration of 2.5 μM. The samples were mixed using the pin-transporter and sedimented by centrifugation for 2 min. at 4° C. and incubated on ice for 10 min. The flcERE probe was added to the other aliquot of the mix to 1 nM. 3 μl of the mix containing the flcERE probe was added to each well containing ERα and the test compound. The samples were mixed using the pin-transporter, the plates were briefly centrifuged and incubated at room temperature for 10 min. and fluorescence anisotropy (FA) was measured using a BMG PheraStar (BMG Labtech) microplate reader (module: 485 520) with excitation at 485λ and emission at 520λ. To identify small molecules that were highly fluorescent, or quench fluorescence, fluorescence intensity was also measured.
as §1

[3] = binding to HRE, 5 concentrations 0.5-10 μM, sequential method, read-out: IC50 ERα

## Cn1c(=O)c2nc(CSCc3ccccc3)[nH]c2n(C)c1=O [Compound 95910, 8-Benzylsulfanylmethyl-1,3-dimethyl-3,7-dihydro-purine-2,6-dione]
[1]
  IC50: 9.5 µM
[2]; absence of zinc
  inhibition of binding of ERα to the flcERE: 76±7%
[2]; presence of 50 μM zinc
  inhibition of binding of ERα to the flcERE: 68±6%
[2]; [3]
  IC50: 3 µM
[2]; read-out: IC50 for inhibition of ERα binding to the flcERE
  IC50: ~3 µM and 3.5 µM

## CN1CCC(C#N)c2ccccc21 (stereo not drawn) [Compound 1529]
[1]
  IC50: 7.5 µM
[2]; [3]
  IC50: 4 µM

## CN(C)CCCn1c2c3ccccc3ccc2c2oc(=O)c3ccccc3c21 [Compound 638432]
[1]
  IC50: 7.4 µM
[2]; [3]
  IC50: 2.5 µM
